Columns and labels:
human SCD1 = target: T1, human SCD1 (Homo sapiens, UniProt O00767); experiment: Growth inhibition of yeast strain expressing human SCD1 as sole desaturase (OLE1 deleted), OD600 readout; assay type: cell-based; conditions: yeast strain expressing human SCD1 as sole desaturase; growth (OD600) after 40 h at 30° C.; read-out: SCD1 IC50
T1 construct: expressed in transfected cells; host or cells: yeast strain with OLE1 deleted, plasmid-borne human SCD1 (selected in SD-Ura)
T1 sequence (O00767 1-359): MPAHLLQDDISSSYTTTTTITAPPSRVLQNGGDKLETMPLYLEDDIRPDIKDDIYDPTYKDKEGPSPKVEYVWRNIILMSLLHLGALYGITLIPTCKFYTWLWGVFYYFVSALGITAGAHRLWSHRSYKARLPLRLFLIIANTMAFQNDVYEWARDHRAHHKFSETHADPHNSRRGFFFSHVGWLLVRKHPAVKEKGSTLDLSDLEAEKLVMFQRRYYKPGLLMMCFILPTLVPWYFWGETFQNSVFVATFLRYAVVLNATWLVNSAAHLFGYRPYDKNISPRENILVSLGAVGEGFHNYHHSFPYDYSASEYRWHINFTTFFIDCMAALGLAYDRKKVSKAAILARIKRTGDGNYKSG

human SCD5 = target: T2, human SCD5 (Homo sapiens, UniProt Q86SK9); experiment: Growth inhibition of yeast strain expressing human SCD5 as sole desaturase (OLE1 deleted), OD600 readout; assay type: cell-based; conditions: yeast strain expressing human SCD5 as sole desaturase; growth (OD600) after 40 h at 30° C.; read-out: SCD5 IC50
T2 construct: expressed in transfected cells; host or cells: yeast strain with OLE1 deleted, plasmid-borne human SCD5 (selected in SD-Ura)
T2 sequence (Q86SK9 1-330): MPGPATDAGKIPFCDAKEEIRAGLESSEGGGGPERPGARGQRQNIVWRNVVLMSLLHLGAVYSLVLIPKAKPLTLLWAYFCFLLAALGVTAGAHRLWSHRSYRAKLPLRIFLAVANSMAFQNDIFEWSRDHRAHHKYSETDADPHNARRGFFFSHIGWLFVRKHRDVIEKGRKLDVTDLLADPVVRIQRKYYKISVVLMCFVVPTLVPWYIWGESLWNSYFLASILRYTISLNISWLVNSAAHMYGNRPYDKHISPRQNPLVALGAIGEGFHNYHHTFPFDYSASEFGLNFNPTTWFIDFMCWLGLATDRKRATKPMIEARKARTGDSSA

| SMILES | IC50 (human SCD1) | IC50 (human SCD5) |
| --- | --- | --- |
| CC(O)c1ccc(C(=O)Nc2ccc(Cc3ccc(F)c(F)c3)cn2)cn1 (stereo not drawn) [Compound 514] | 2600 nM | 320 nM |
| Cn1ccc(C(=O)Nc2ccc(Cc3ccc(F)c(F)c3)cn2)cc1=O [Compound 515] | 5900 nM | 320 nM |
| O=C(Nc1ccc(Cc2ccc(F)c(F)c2)cn1)c1ncc(Br)cn1 [Compound 518] | > 45000 nM | 1700 nM |
| C#Cn1nc(C(=O)Nc2ccc(Cc3cccc(Cl)c3)cn2)ccc1=O [Compound 521] | 2500 nM | 5300 nM |
| Cc1cc(C(=O)Nc2ccc(Cc3ccc(F)c(F)c3)cn2)nn(C)c1=O [Compound 523] | > 45000 nM | 110 nM |
| Cc1cc(C(=O)Nc2ccc(Cc3cc(F)cc(F)c3)cn2)nn(C)c1=O [Compound 524] | > 45000 nM | 29 nM |
| N#Cc1ncc(C(=O)Nc2ccc(Cc3ccc(F)c(F)c3)cn2)cn1 [Compound 525] | > 45000 nM | 550 nM |
| O=C(Nc1ccc(Cc2cccc(F)c2)cn1)c1cc2ncnc(Cl)c2s1 [Compound 527] | > 45000 nM | 1300 nM |
| N#Cc1ccc(C(=O)Nc2ccc(Cc3ccc(F)c(C#N)c3)cn2)nc1 [Compound 534] | 6000 nM | 200 nM |
| N#Cc1cc(F)cc(Cc2ccc(NC(=O)c3ccc(C#N)nc3)nc2)c1 [Compound 535] | > 45000 nM | 480 nM |
| Cn1nc(C(=O)Nc2ccc(Cc3ccc(F)cc3F)cn2)ccc1=O [Compound 537] | 17000 nM | 490 nM |
| Cn1nc(C(=O)Nc2ccc(Cc3cc(F)ccc3F)cn2)ccc1=O [Compound 539] | 3500 nM | 170 nM |
| N#Cc1ccc(C(=O)Nc2ccc(Cc3ccc(F)c(F)c3)cn2)cn1 [Compound 541] | 6600 nM | 220 nM |
| N#Cc1ccc(NC(=O)c2ccc(Cc3ccc(F)c(F)c3)cn2)cn1 [Compound 542] | 18000 nM | 10 nM |
| Cn1ccc(C(=O)Nc2ccc(Cc3ccc(F)c(F)c3)cn2)nc1=O [Compound 548] | > 45000 nM | 3000 nM |
| N#Cc1cnc(C(=O)Nc2ccc(Cc3ccc(F)c(F)c3)cn2)nc1 [Compound 549] | > 45000 nM | 890 nM |
| Cn1cc(C(=O)Nc2ccc(Cc3ccc(F)c(C#N)c3)cn2)ccc1=O [Compound 550] | 2400 nM | 370 nM |
| Cn1nc(C(=O)Nc2ccc(Cc3cccc(F)c3F)cn2)ccc1=O [Compound 551] | > 45000 nM | 1200 nM |
| O=C(O)c1cnc(C(=O)Nc2ccc(Cc3ccc(F)c(F)c3)cn2)cn1 [Compound 554] | 3200 nM | 8800 nM |
| O=C(Nc1ccc(Cc2cccc(Cl)c2)cn1)c1cc2ncncc2s1 [Compound 556] | 2300 nM | 10 nM |
| O=C(Nc1ccc(Cc2cccc(Cl)c2)cn1)c1ccc(C2(O)CC2)nc1 [Compound 557] | > 45000 nM | 1900 nM |
| Cn1nc(C(=O)Nc2ccc(Cc3cc(F)c(F)c(C#N)c3)cn2)ccc1=O [Compound 558] | 43000 nM | 64 nM |
| Cn1nc(C(=O)Nc2ccc(Cc3cccc(C(F)F)c3)cn2)ccc1=O [Compound 561] | 6700 nM | 200 nM |
| Cn1cc(C(=O)Nc2ccc(Cc3cc(F)ccc3F)cn2)ccc1=O [Compound 565] | 2700 nM | 20 nM |
| Cn1cc(C(=O)Nc2ccc(Cc3c(F)cccc3F)cn2)ccc1=O [Compound 566] | > 45000 nM | 5600 nM |
| C=Cc1cnc(C(=O)Nc2ccc(Cc3ccc(F)c(F)c3)cn2)nc1 [Compound 568] | 3900 nM | 880 nM |
| Cn1cc(NC(=O)c2ccc(COc3ccccc3)cn2)ccc1=O [Compound 569] | > 45000 nM | 1200 nM |
| COC(=O)c1ccnc(C(=O)Nc2ccc(Cc3cccc(F)c3)cn2)c1 [Compound 570] | 10000 nM | 430 nM |

Stronger by IC50 (human SCD1), values ahead:

| IC50 (human SCD1) | IC50 (human SCD5) | SMILES |
| --- | --- | --- |
| 430 nM | 120 nM | Cn1c(C(=O)Nc2ccc(Cc3cc(F)cc(F)c3)cn2)coc1=O [Compound 509] |
| 100 nM | 77 nM | CC(O)c1ccc(C(=O)Nc2ccc(Cc3cccc(Cl)c3)cn2)nc1 (stereo not drawn) [Compound 510] |
| 143 nM | 190 nM | CC(O)c1ccc(C(=O)Nc2ccc(Cc3ccc(F)c(F)c3)cn2)nc1 (stereo not drawn) [Compound 511] |
| 49 nM | 60 nM | CC(O)c1ccc(C(=O)Nc2ccc(Cc3cccc(Cl)c3)cn2)nn1 (stereo not drawn) [Compound 512] |
| 770 nM | 170 nM | CC(O)c1ccc(C(=O)Nc2ccc(Cc3cc(F)cc(F)c3)cn2)cn1 (stereo not drawn) [Compound 513] |
| 960 nM | 770 nM | CC(=O)c1ccc(C(=O)Nc2ccc(Cc3ccc(F)c(F)c3)cn2)nn1 [Compound 516] |
| 180 nM | 140 nM | CC(=O)c1ccc(C(=O)Nc2ccc(Cc3cccc(Cl)c3)cn2)nn1 [Compound 517] |
| 880 nM | 220 nM | C[C@H](O)c1ccc(C(=O)Nc2ccc(Cc3cccc(Cl)c3)cn2)cn1 [Compound 519] |
| 360 nM | 90 nM | C[C@@H](O)c1ccc(C(=O)Nc2ccc(Cc3cccc(Cl)c3)cn2)cn1 [Compound 520] |
| 360 nM | 60 nM | CC(O)c1ccc(C(=O)Nc2ccc(Cc3ccc(F)c(Cl)c3)cn2)cn1 (stereo not drawn) [Compound 522] |
| 99 nM | 10 nM | N#Cc1ccc(NC(=O)c2ccc(Cc3cc(F)cc(F)c3)cn2)cn1 [Compound 526] |
| 60 nM | 10 nM | Cn1nc(C(=O)Nc2ccc(Cc3cc(F)c(F)c(Cl)c3)cn2)ccc1=O [Compound 528] |
| 1100 nM | 670 nM | CC(O)c1ccc(C(=O)Nc2ccc(Cc3cccc(F)c3)cn2)cn1 (stereo not drawn) [Compound 529] |
| 160 nM | 190 nM | CC(O)c1ccc(C(=O)Nc2ccc(Cc3ccc(F)c(F)c3)cn2)nn1 (stereo not drawn) [Compound 530] |
| 1300 nM | 340 nM | CCc1cc(C(=O)Nc2ccc(Cc3cccc(F)c3)cn2)nn(C)c1=O [Compound 531] |
| 10 nM | 10 nM | Cn1nccc(C(=O)Nc2ccc(Cc3cc(F)cc(F)c3)cn2)c1=O [Compound 532] |
| 220 nM | 10 nM | Cn1ccc(C(=O)Nc2ccc(Cc3cc(F)cc(F)c3)cn2)cc1=O [Compound 533] |
| 1000 nM | 110 nM | N#Cc1ccc(C(=O)Nc2ccc(Cc3cc(F)cc(C#N)c3)cn2)nc1 [Compound 536] |

| IC50 (human SCD1) | IC50 (human SCD5) | SMILES |
| --- | --- | --- |
| 1600 nM | 180 nM | Cn1cc(C(=O)Nc2ccc(Cc3ccc(F)cc3F)cn2)ccc1=O [Compound 538] |
| 60 nM | 10 nM | Cn1nc(CO)cc1C(=O)Nc1ccc(Cc2cccc(F)c2)cn1 [Compound 540] |
| 37 nM | 10 nM | Cn1cc(C(=O)Nc2ccc(Cc3cc(F)c(F)c(Cl)c3)cn2)ccc1=O [Compound 543] |
| 10 nM | 960 nM | O=C(Nc1ccc(Cc2cccc(F)c2)cn1)c1ncc(CO)cn1 [Compound 544] |
| 710 nM | 100 nM | Cn1cc(C(=O)Nc2ccc(Cc3cccc(C(F)F)c3)cn2)ccc1=O [Compound 545] |
| 320 nM | 27 nM | Cn1nccc(C(=O)Nc2ccc(Cc3cccc(F)c3)cn2)c1=O [Compound 546] |
| 240 nM | 10 nM | Cn1nccc(C(=O)Nc2ccc(Cc3ccc(F)c(F)c3)cn2)c1=O [Compound 547] |
| 1900 nM | 360 nM | Cn1cc(C(=O)Nc2ccc(Cc3cccc(F)c3F)cn2)ccc1=O [Compound 552] |
| 740 nM | 10 nM | O=C(Nc1ccc(Cc2cccc(F)c2)cn1)c1cc2ncncc2s1 [Compound 555] |
| 10 nM | 10 nM | O=C(Nc1ccc(Cc2cc(F)cc(F)c2)cn1)c1ncc(CO)cn1 [Compound 559] |
| 250 nM | 22 nM | Cn1nc(C(=O)Nc2ccc(Cc3cccc(F)c3)cn2)cc1CO [Compound 560] |
| 1000 nM | 10 nM | Cn1nc(C(=O)Nc2ccc(Cc3cc(F)cc(C(F)F)c3)cn2)ccc1=O [Compound 562] |
| 1100 nM | 570 nM | N#Cc1cc(C(=O)Nc2ccc(Cc3ccc(F)c(F)c3)cn2)ccn1 [Compound 563] |
| 1400 nM | 62 nM | Cn1nc(C(=O)Nc2ccc(Cc3ccc(F)c(C#N)c3)cn2)ccc1=O [Compound 564] |
| 10 nM | 10 nM | CNC(=O)c1ccnc(NC(=O)c2ccc(Cc3cccc(F)c3)cn2)c1 [Compound 567] |
| 520 nM | 10 nM | Cn1nc(C(=O)Nc2ccc(Cc3ccc(F)c(F)c3Cl)cn2)ccc1=O [Compound 571] |
| 17 nM | 10 nM | Cn1cc(C(=O)Nc2ccc(Cc3ccc(F)c(F)c3Cl)cn2)ccc1=O [Compound 572] |

Reference: US20230078764A1 (Yumanity Therapeutics, Inc., priority 2019, published 2023)
